Patent US4526892A, “Dimethylaminoalkyl-3-(ergoline-8'βcarbonyl)-ureas” (Farmitalia Carlo Erba, S.p.A., priority 1982, dated 1985)

What was measured:
mice [1] = test: Acute toxicity: orientative toxicity in mice; type: in vivo, mouse; details: per os, observed for seven days
Text: The male mice for each group were orally treated with drugs at different dose levels for the determination of orientative toxicity.

[2] = system: spontaneously hypertensive male rats, strain SHR; test: Change in heart rate (HR) in SHR rats; type: in vivo, rat
Method: (§1) Four spontaneously hypertensive male rats, strain SHR, weighing 250-300 g for each group were used. The animals were treated once a day for four consecutive days. Drugs were administered by gastric gavage, suspended in 5% gum arabic (0.2 ml/100 g body weight) and blood pressure (BP) and heart rate (HR) were measured by indirected tail/cuff method (BP Recorder W+W). Blood pressure and heart rate were measured on the first and fourth days of treatment 1 hour before and 1 and 5 hours after drug administration. Hydralazine and α-methyl-Dopa were used as reference drugs.

[3] = system: spontaneously hypertensive male rats, strain SHR; test: Anti-hypertensive activity: change in blood pressure (BP) in SHR rats; type: in vivo, rat; details: for Hypotensive activity vs Hydralazine: compound 25 mg/kg vs Hydralazine 5 mg/kg; for Tolerance on the 4th day: compound 25 mg/kg, unlike Hydralazine
Method: as §1

mice [4] = details: per os, data of LD50 from the literature; cited from earlier work
[5] = 5 mg/kg os, 1st day, 1 hour after dosing
[6] = 5 mg/kg os, 1st day, 5 hours after dosing
[7] = 5 mg/kg os, 4th day, 1 hour after dosing
[8] = 5 mg/kg os, 4th day, 5 hours after dosing
[9] = 25 mg/kg os, 1st day, 1 hour after dosing
[10] = 25 mg/kg os, 1st day, 5 hours after dosing
[11] = 25 mg/kg os, 4th day, 1 hour after dosing
[12] = 25 mg/kg os, 4th day, 5 hours after dosing
[13] = 30 mg/kg os, 1st day, 1 hour after dosing
[14] = 30 mg/kg os, 1st day, 5 hours after dosing
[15] = 30 mg/kg os, 4th day, 1 hour after dosing
[16] = 30 mg/kg os, 4th day, 5 hours after dosing
[17] = 100 mg/kg os, 1st day, 1 hour after dosing
[18] = 100 mg/kg os, 1st day, 5 hours after dosing
[19] = 100 mg/kg os, 4th day, 1 hour after dosing
[20] = 100 mg/kg os, 4th day, 5 hours after dosing

| SMILES | Orientative toxicity in mice (mice [1]) [mg/kg] | Change in HR [2, 5] [beats/minute] | Change in HR [2, 6] [beats/minute] | Change in HR [2, 7] [beats/minute] | Change in HR [2, 8] | Change in HR [2, 9] | Change in HR [2, 10] [beats/minute] | Change in HR [2, 11] [beats/minute] | Change in HR [2, 12] [beats/minute] | Change in BP [3, 5] [mmHg] | Change in BP [3, 6] [mmHg] | Change in BP [3, 7] [mmHg] | Change in BP [3, 8] [mmHg] | Change in BP [3, 9] [mmHg] | Change in BP [3, 10] [mmHg] | Change in BP [3, 11] [mmHg] | Change in BP [3, 12] [mmHg] | Hypotensive activity vs Hydralazine [3] | Tolerance on the 4th day [3] | Effect on BP (in words) ([3]; 25 mg/kg, 1st and 4th days) | further results |
| --- | --- | --- | --- | --- | --- | --- | --- | --- | --- | --- | --- | --- | --- | --- | --- | --- | --- | --- | --- | --- | --- |
| CO[C@]12C[C@@H](C(=O)N(C(=O)NC3CCCCC3)C3CCCCC3)CN(C)[C@@H]1Cc1cn(C)c3cccc2c13 [Example 10, 1,3-dicyclohexyl-3-(10'α-methoxy-1',6'-dimethylergoline-8'β-carbonyl)-urea] | > 800 | -5 | -20 | -20 | +15 beats/minute | -2 beats/minute | -12 | -17 | -20 | -11 | -22 | -15 | -16 | -26 | -41 | -51 | -40 | comparable to that of Hydralazine | no tolerance on the 4th day |  | Effect on BP (in words) ([3]; os, all tested doses of the compound): a decrease of BP was observed; this effect was long lasting |
| CO[C@]12C[C@@H](C(=O)N(C(=O)NC3CCCCC3)C3CCCCC3)CN(C)[C@@H]1Cc1c[nH]c3cccc2c13 [Example 9, 1,3-dicyclohexyl-3-(10'α-methoxy-6'-methylergoline-8'β-carbonyl)-urea] | > 800 |  |  |  |  | -20 beats/minute | -10 | 0 | -20 |  |  |  |  | -30 | -37 | -5 | -23 | comparable to that of Hydralazine | no tolerance on the 4th day |  | Effect on BP (in words) ([3]; 25 mg/kg, 1st day): marked decrease of BP; Effect on BP (in words) ([3]; 25 mg/kg, 4th day, first hour after dosing): the hypotensive effect was still observed on the fourth day even if less remarkable |
| C=CCN1C[C@H](C(=O)N(C(=O)NC2CCCCC2)C2CCCCC2)C[C@@H]2c3cccc4[nH]cc(c34)C[C@H]21 [Example 15, 1,3-dicyclohexyl-3-(6'-allylergoline-8'β-carbonyl)-urea] | > 800 |  |  |  |  | -20 beats/minute | -20 | -27 | -10 |  |  |  |  | -35 | -27 | -47 | -38 |  |  | decrease in BP both on the 1st and 4th days of treatment but more pronounced on the 4th day | Hypotensive activity vs Hydralazine ([3]; 4th day): much more remarkable; Hypotensive activity vs Hydralazine ([3]; first day): comparable to that of Hydralazine |
| CN1C[C@H](C(=O)N(C(=O)NC2CCCCC2)C2CCCCC2)C[C@@H]2c3cccc4[nH]cc(c34)C[C@H]21 [Example 7, 1,3-dicyclohexyl-3-(6'-methylergoline-8'β-carbonyl)urea] | > 800 | 0 | -10 | 0 | 0 beats/minute | +5 beats/minute | -20 | -17 | -2 | -12 | -10 | -15 | -7 | -30 | -57 | -30 | -10 | comparable to that of Hydralazine | no tolerance on the 4th day | significant decrease BP | Effect on BP (in words) ([3]; 5 mg/kg): the antihypertensive effect was less remarkable |
| C[C@](N)(Cc1ccc(O)c(O)c1)C(=O)O [α-methyl-Dopa, reference compound] |  |  |  |  |  |  |  |  |  |  |  |  |  |  |  |  |  |  |  |  | LD50 (orientative toxicity column) (mice [4]): 5300 mg/kg; Change in HR [2, 13]: +35 beats/minute; Change in HR [2, 14]: +40 beats/minute; Change in HR [2, 15]: +45 beats/minute; Change in HR [2, 16]: +30 beats/minute; Change in HR [2, 17]: +70 beats/minute; Change in HR [2, 18]: +40 beats/minute; Change in HR [2, 19]: +50 beats/minute; Change in HR [2, 20]: +10 beats/minute; Effect on HR (in words) ([2]; SHR rats, os): increase of HR; Change in BP [3, 13]: -10 mmHg; Change in BP [3, 14]: -20 mmHg; Change in BP [3, 15]: -10 mmHg; Change in BP [3, 16]: 0 mmHg; Change in BP [3, 17]: -10 mmHg; Change in BP [3, 18]: -25 mmHg; Change in BP [3, 19]: -20 mmHg; Change in BP [3, 20]: -25 mmHg |
